From article PMC10895652, “Preclinical Evaluation of Novel Positron Emission Tomography (PET) Probes for Imaging Leucine-Rich Repeat Kinase 2 (LRRK2)” (Journal of Medicinal Chemistry, 2024)
Like-named read-outs stand apart in the source and are kept apart here. Blank lines part the entries; values can stand above or below the compound they belong to.

What was measured:
LRRK2 [1] = target: LRRK2; set-up: method as in PMID 31365783, PMID 36256881, PMID 33582389, PMID 33248850; conditions: saturation assays; cited from earlier work
LRRK2 [2] = target: T1, LRRK2 (Rattus norvegicus, UniProt F1LNJ1); assay: In vitro autoradiography in rat brain sections; format: binding; conditions: blocking with 3 (10 μM)
T1 construct: from tissue; host or cells: rat brain (Sprague-Dawley rats)
Procedure: The general procedure for autoradiography studies was described previously with minor revision in this work.[36],[40] Brain sections from rats were preincubated with Tris-HCl buffer (50 mM), MgCl2 (1.2 mM) and CaCl2 (2 mM) solution for 20 min at ambient temperature, followed by incubation with [^11C]3 and [^18F]4 (0.48 nM). […] After incubation, brain sections were rinsed with ice-cold buffer 3 times for 2 min and dipped in cold distilled water for 10 s. The brain sections were dried with cold air and then placed on imaging plates (BAS-MS2025, GE Healthcare, NJ) for optimized contact periods. Autoradiograms were obtained and regions of interest (ROIs) were carefully drawn with the reference of naked-eye observation. Radioactivity was measured using an Amersham Typhoon 5 analyzer system and expressed as photostimulated luminescence values per unit area (PSL/mm^2) or normalized to % of radioactivity vs control.

LRRK2 [3] = conditions: read-out: WCA IC50, cited from earlier work
LRRK2 G2019S = conditions: cited from earlier work
[4] = set-up: method as in earlier work; conditions: molecular formula strings file; cited from earlier work
[5] = human liver microsomal clearance; cited from earlier work
[6] = cited from earlier work; for RRCK Papp AB: molecular formula strings file
MDR1 = conditions: cited from earlier work
LRRK2 WT = conditions: cited from earlier work
THLE cells = conditions: THLE cell viability; cited from earlier work

T1 sequence (F1LNJ1 1-2526): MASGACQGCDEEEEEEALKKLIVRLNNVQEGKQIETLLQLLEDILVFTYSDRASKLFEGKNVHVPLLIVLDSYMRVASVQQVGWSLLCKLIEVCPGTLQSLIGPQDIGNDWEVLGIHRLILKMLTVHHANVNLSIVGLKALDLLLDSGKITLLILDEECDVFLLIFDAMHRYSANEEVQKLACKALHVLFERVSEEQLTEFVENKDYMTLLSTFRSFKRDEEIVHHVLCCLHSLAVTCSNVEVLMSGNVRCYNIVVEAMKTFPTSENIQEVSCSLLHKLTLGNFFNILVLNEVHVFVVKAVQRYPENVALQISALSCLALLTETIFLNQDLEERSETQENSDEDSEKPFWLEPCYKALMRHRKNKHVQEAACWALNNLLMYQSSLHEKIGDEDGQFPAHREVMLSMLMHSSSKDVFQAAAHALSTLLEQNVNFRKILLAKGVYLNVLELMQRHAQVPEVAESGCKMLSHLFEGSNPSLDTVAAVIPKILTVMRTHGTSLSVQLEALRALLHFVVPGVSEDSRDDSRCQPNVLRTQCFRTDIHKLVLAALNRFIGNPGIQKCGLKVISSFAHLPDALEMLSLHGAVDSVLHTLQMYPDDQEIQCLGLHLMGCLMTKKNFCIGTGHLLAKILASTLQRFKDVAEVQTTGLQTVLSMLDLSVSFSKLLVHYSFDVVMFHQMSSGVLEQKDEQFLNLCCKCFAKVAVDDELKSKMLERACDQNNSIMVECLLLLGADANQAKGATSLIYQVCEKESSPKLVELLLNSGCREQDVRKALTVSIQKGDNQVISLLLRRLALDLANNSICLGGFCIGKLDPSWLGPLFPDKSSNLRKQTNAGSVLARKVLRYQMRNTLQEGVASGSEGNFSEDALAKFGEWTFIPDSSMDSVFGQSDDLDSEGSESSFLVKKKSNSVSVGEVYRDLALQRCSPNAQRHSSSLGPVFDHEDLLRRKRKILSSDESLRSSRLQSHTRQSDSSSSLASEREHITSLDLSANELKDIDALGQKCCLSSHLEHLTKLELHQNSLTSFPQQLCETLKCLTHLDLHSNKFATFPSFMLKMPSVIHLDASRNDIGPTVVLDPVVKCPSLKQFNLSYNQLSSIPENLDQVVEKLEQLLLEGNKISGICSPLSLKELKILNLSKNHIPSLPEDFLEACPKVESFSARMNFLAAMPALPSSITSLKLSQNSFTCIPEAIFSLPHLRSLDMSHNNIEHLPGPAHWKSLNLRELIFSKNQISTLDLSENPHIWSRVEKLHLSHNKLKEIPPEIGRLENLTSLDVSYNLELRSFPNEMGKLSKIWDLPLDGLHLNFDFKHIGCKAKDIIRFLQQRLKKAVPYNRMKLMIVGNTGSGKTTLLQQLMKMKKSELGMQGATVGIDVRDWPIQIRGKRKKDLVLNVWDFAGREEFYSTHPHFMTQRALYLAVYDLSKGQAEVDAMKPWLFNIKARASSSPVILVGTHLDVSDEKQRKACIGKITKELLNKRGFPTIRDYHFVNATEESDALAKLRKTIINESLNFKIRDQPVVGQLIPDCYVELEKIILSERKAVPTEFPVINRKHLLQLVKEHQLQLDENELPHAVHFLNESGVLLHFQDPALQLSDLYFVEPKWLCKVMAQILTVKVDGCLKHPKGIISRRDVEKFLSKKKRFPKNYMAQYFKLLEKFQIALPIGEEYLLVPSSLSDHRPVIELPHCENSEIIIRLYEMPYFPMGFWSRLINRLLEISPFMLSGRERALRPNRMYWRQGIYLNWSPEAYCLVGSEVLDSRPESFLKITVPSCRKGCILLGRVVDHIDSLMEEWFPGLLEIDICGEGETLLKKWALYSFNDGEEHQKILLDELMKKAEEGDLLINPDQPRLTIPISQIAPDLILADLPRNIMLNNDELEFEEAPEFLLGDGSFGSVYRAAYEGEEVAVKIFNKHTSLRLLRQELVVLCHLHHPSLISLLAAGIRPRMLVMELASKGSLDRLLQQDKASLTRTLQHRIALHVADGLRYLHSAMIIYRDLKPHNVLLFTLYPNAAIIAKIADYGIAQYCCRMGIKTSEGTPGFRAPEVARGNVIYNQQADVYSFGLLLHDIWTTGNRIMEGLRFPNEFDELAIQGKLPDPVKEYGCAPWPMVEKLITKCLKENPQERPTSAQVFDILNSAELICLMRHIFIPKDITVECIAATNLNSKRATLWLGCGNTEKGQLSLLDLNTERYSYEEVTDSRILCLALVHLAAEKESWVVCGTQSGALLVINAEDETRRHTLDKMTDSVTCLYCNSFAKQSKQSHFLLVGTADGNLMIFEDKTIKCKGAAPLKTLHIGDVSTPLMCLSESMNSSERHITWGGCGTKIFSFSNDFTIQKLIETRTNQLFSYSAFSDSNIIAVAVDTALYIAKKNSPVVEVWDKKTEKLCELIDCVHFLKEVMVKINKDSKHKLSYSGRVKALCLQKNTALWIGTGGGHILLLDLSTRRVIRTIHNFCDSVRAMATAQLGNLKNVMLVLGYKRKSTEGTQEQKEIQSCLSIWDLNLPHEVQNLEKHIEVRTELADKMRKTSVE

SMILES: CN(C)c1ncnc2[nH]cc(-c3ccc([18F])nc3)c12 [compound 1]
Kd (LRRK2 [1]): 0.0067 µM

reduction of radioactive uptake under self-blocking (LRRK2 [2]; cerebellum): 83% | reduction of radioactive uptake under self-blocking (LRRK2 [2]; cerebral cortex): 87% | reduction of radioactive uptake under self-blocking (LRRK2 [2]; hippocampus): 87% | reduction of radioactive uptake under self-blocking (LRRK2 [2]; pons): 64% | reduction of radioactive uptake under self-blocking (LRRK2 [2]; striatum): 85% | reduction of radioactive uptake under self-blocking (LRRK2 [2]; thalamus): 83%
SMILES: N#[11C]c1cccc(-c2c[nH]c3ncnc(N4CCOCC4)c23)c1 [[^11C]3]

SMILES: CC(C)(C)Cn1ccc2c(N3CCOCC3)nc(-c3ccc(NC(=O)Nc4ccc([18F])nc4)cc3)nc21 [FMN3PU]
Kd (LRRK2 [1]): 0.0236 µM

SMILES: N#Cc1cccc(-c2c[nH]c3ncnc(N4CCOCC4)c23)c1F [compound 4]
IC50 (LRRK2 [3]; whole cellular LRRK2 assay, n ≥ 2): 0.02 µM | IC50 (LRRK2 G2019S; Table S1): 0.009 µM | LogD [4]: 2.072 | pKa [4]: 5.61 | HLM CL [5]: 1.88 L/h/kg | RRCK PappAB ([6]; Table S1, unit assumed): 29.2 10^-6 cm/s | RRCK Papp AB [6]: 29.18 | RRCK PappAB ([6]; passive permeability): 29.18 1 × 10^–6 cm/s | MDR1 BA/AB (MDR1; MDR1 efflux ratio): 1.10 | IC50 (LRRK2 WT; Table S1): 0.003 µM | IC50 (LRRK2 WT; biochemical LRRK2 assay, n ≥ 2): 0.00358 µM | IC50 (THLE cells): 162 µM

SMILES: CNc1nc(Nc2ccc(C(=O)N3CCOCC3)cc2O[11CH3])ncc1C(F)(F)F [GNE-1023, reference compound]
RRCK PappAB ([6]; passive permeability): 18.2 1 × 10^–6 cm/s | MDR1 BA/AB (MDR1; MDR1 efflux ratio): 1.2 | IC50 (LRRK2 WT; biochemical LRRK2 assay, n ≥ 2): 0.002 µM

SMILES: N#Cc1cccc(-c2c[nH]c3ncnc(N4CCOCC4)c23)c1 [compound 3, 3-(4-morpholino-7H-pyrrolo[2,3-d]pyrimidin-5-yl)benzonitrile]
IC50 (LRRK2 [3]; Table S1): 0.025 µM | IC50 (LRRK2 G2019S; biochemical LRRK2 assay, n ≥ 2): 0.014 µM | HLM CL [5]: 2.16 L/h/kg | RRCK PappAB ([6]; Table S1, unit assumed): 27 10^-6 cm/s | RRCK Papp AB [6]: 26.68 | RRCK PappAB ([6]; passive permeability): 26.68 1 × 10^–6 cm/s | MDR1 BA/AB (MDR1; MDR1 efflux ratio): 1.08 | MDR1 BA/AB (MDR1; Table S1): 1.0 | IC50 (LRRK2 WT; biochemical LRRK2 assay, n ≥ 2): 0.003 µM | IC50 (THLE cells): > 223 µM

SMILES: [18F]c1ccc(-c2c[nH]c3ncnc(N4CCOCC4)c23)cn1 [compound 2]
Kd (LRRK2 [1]): 0.0143 µM

SMILES: CC(C)(C)Cn1ccc2c(N3CCOCC3)nc(-c3ccc(NC(=O)c4ccc([18F])nc4)cc3)nc21 [FMN3PA]
Kd (LRRK2 [1]): 0.02 µM
